Data: publication PMC10114720

Legend:
[1] = PDMS sheets cleaned by Soxhlet with ethyl acetate; batch shaking method with a mixture of all chemicals at several PDMS-mass to water-volume ratios and spiked levels; vials shaken on an orbital shaker at room temperature in the dark, sampled at two equilibration times; PDMS extracts and water quantified by LC-HRMS (Orbitrap); D from the slope of C_PDMS on C_w or their ratio; value is the mean over that pH's experiments (individual experiments in the SI's concentrations table), sd is the table's stdev; details: PDMS (polydimethylsiloxane silicone sheet), phosphate buffer at three target pH values (the paper's methods)
[2] = monoprotic acid or base: log K of the neutral species extrapolated from the linear regression of D on the neutral fraction (from pKa and pH; the paper's eq. for monoprotic IOCs), the slope giving K of the neutral species; replicates column holds the table's 95% confidence limits. PDMS sheets cleaned by Soxhlet with ethyl acetate; batch shaking method with a mixture of all chemicals at several PDMS-mass to water-volume ratios and spiked levels; vials shaken on an orbital shaker at room temperature in the dark, sampled at two equilibration times; PDMS extracts and water quantified by LC-HRMS (Orbitrap); D from the slope of C_PDMS on C_w or their ratio; details: PDMS (polydimethylsiloxane silicone sheet); phosphate buffer at three target pH values (the paper's methods)

Row | Structure (SMILES) | log D PDMS/w (apparent distribution ratio at the stated pH) ([1]; pH 3) | log D PDMS/w (apparent distribution ratio at the stated pH) ([1]; pH 7.4) | log D PDMS/w (apparent distribution ratio at the stated pH) ([1]; pH 11.5) | log K PDMS/w (neutral species) [2]
1 | Clc1ccc2n[nH]nc2c1 | 0.7386 log units; D and K as the pape | 0.79 log units; D and K as the pape | 0.065 log units; D and K as the pape | 1.144 log units; D and K as the pape
2 | CCN(CC)c1ccc2c(C)cc(=O)oc2c1 | 2.535 log units; D and K as the pape | 2.797 log units; D and K as the pape | 2.809 log units; D and K as the pape | 2.913 log units; D and K as the pape
3 | CCNC(=O)[C@@H](C)OC(=O)Nc1ccccc1 | 0.635 log units; D and K as the pape | 0.5527 log units; D and K as the pape | 0.7717 log units; D and K as the pape | -0.07551 log units; D and K as the pape
4 | CO/C=C(/C(=O)O)c1ccccc1Oc1cc(Oc2ccccc2C#N)ncn1 | 1.162 log units; D and K as the pape | -0.4633 log units; D and K as the pape | -0.695 log units; D and K as the pape | 1.355 log units; D and K as the pape
5 | CCOC(=O)c1ccc(N(C)C)cc1 | 2.216 log units; D and K as the pape | 2.266 log units; D and K as the pape | 2.184 log units; D and K as the pape | 2.315 log units; D and K as the pape
6 | COCCc1ccc(OCC(O)CNC(C)C)cc1 (stereo not drawn) | 0.28 log units; D and K as the pape | -0.003333 log units; D and K as the pape |  | 
7 | c1ccc(-c2ccc(C(c3ccccc3)n3ccnc3)cc2)cc1 (stereo not drawn) | 2.122 log units; D and K as the pape | 4.209 log units; D and K as the pape | 4.169 log units; D and K as the pape | 4.281 log units; D and K as the pape
8 | CCc1cccc(C)c1N(C(=O)C(=O)O)C(C)C(=O)O (stereo not drawn) | 1.878 log units; D and K as the pape | 3.06 log units; D and K as the pape | 3.008 log units; D and K as the pape | 
9 | O=C(O)Cc1ccccc1Nc1c(Cl)cccc1Cl |  |  |  | 1.867 log units; D and K as the pape
10 | CC(C)(Oc1ccc(CCNC(=O)c2ccc(Cl)cc2)cc1)C(=O)O | 1.054 log units; D and K as the pape | -0.64 log units; D and K as the pape |  | 1.311 log units; D and K as the pape
11 | CCNS(=O)(=O)c1ccccc1C | 0.51 log units; D and K as the pape | 0.4188 log units; D and K as the pape | 0.4886 log units; D and K as the pape | 0.5936 log units; D and K as the pape
12 | Cc1nccn1CC1CCc2c(c3ccccc3n2C)C1=O (stereo not drawn) | -0.92 log units; D and K as the pape | 1.409 log units; D and K as the pape | 2.124 log units; D and K as the pape | 2.203 log units; D and K as the pape
13 | Cc1ccc2[nH]nnc2c1 | 0.336 log units; D and K as the pape | 0.308 log units; D and K as the pape | -0.64 log units; D and K as the pape | 0.3619 log units; D and K as the pape
14 | N[C@@H](Cc1cc(I)c(Oc2cc(I)c(O)c(I)c2)c(I)c1)C(=O)O | 0.632 log units; D and K as the pape | 0.2933 log units; D and K as the pape |  | 
15 | CCOC(=O)NCCOc1ccc(Oc2ccccc2)cc1 | 3.077 log units; D and K as the pape | 2.994 log units; D and K as the pape | 2.967 log units; D and K as the pape | 3.121 log units; D and K as the pape
16 | CC(C)(c1cc(Br)c(O)c(Br)c1)c1cc(Br)c(O)c(Br)c1 | 4.46 log units; D and K as the pape | 2.944 log units; D and K as the pape |  | 
17 | CCc1ccc(CCOc2ccc(CC3SC(=O)NC3=O)cc2)nc1 (stereo not drawn) | 0.7792 log units; D and K as the pape | 2.087 log units; D and K as the pape | -0.02556 log units; D and K as the pape | 
18 | Oc1c(Br)cc(Cl)cc1Cc1cc(Cl)cc(Br)c1O | 3.724 log units; D and K as the pape | 2.256 log units; D and K as the pape | 0.555 log units; D and K as the pape | 
19 | NC12CC3CC(CC(C3)C1)C2 |  |  |  | 2.916 log units; D and K as the pape
20 | CC(CCc1ccccc1)NCC(O)c1ccc(O)c(C(N)=O)c1 (stereo not drawn) | -0.855 log units; D and K as the pape | -0.2383 log units; D and K as the pape |  | 
21 | O=C(Nc1ccc(Cl)c(Cl)c1)c1cc(Cl)cc(Cl)c1O |  |  |  | 3.883 log units; D and K as the pape
22 | COC(=O)Nc1nc2ccc(C(=O)c3ccccc3)cc2[nH]1 | 1.465 log units; D and K as the pape | 1.732 log units; D and K as the pape | 1.506 log units; D and K as the pape | 
23 | Nc1nc2ccccc2[nH]1 |  | -0.58 log units; D and K as the pape | -0.51 log units; D and K as the pape | 
24 | CNC(=O)Oc1cccc2ccccc12 |  |  |  | 1.106 log units; D and K as the pape
